Assay results reported in US8791050B2, “Herbicidal compositions” (priority 1998, dated 2014).

Experiments:
Format in all cases: in vivo
[1] = tested on: Sagittaria pygmaea (SAGPY); experiment: Herbicidal effect in rice, greenhouse trial, Sagittaria pygmaea; conditions: Table 5 greenhouse trial, post-emergence 1-2-leaf stage, scoring 20 days after application
Protocol: (§1) The herbicidal efficacy of the active compounds or active compound mixtures was scored visually using the treated plots in comparison to untreated control plots. The damage and development of all above-ground parts of the plants were recorded. Scoring was carried out using a percentage scale (100% effect=all plants killed; 50% effect=50% of the plants and the green parts of the plants killed; 0% effect=no noticeable effect=like control plot). The scores of in each case 4 plots were averaged.
(§2) If the observed activity values already exceed the formal sum of the values for the trials with the individual applications, they also exceed the expected value according to Colby which is calculated using the following formula and which is likewise considered to be an indication of synergism (cf. S. R. Colby; in Weeds 15 (1967) pp. 20 to 22): E=A+B−(A·B/100)
Seeds or rhizome pieces of monocotyledonous and dicotyledonous weeds are placed in sandy loam soil in pots, covered with soil and grown in a greenhouse under good growth conditions (temperature, atmospheric humidity, water supply). […] The compositions according to the invention, formulated as wettable powders or as emulsion concentrates, are sprayed, at various dosages, onto the green parts of the plant at an application rate of 600 to 800 l of water/ha (converted). After the test plants have been in the greenhouse for about 3 to 4 weeks under ideal growth conditions, the effect of the preparations is scored visually by comparison with untreated controls. The compositions according to the invention also have a good herbicidal post-emergence activity against a broad spectrum of economically important weed grasses and weeds.
(§3) Frequently, activities of the combinations according to the invention are observed which exceed the formal sum of the activities when the herbicides are applied individually.

[2] = tested on: rice; experiment: Selectivity: damage to rice, greenhouse trial; conditions: scoring 20 days after application
[3] = tested on: Sesbania exaltata (SEBEX); experiment: Herbicidal effect in rice, field trial, Sesbania exaltata; conditions: Table 10 field trial, post-emergence 2-4-leaf stage, scoring 28 days after application, 32 g of AS/ha
Protocol: as §1, §2
Crop plants were grown outdoors on plots under natural outdoor conditions, and seeds or rhizome pieces of typical harmful plants were laid out or the natural weed growth was utilized. […]
After the application, for example 2, 4, 6 and 8 weeks after the application, the effect of the preparations was scored visually by comparison with untreated controls (cf. scoring in Example 1). […]

[4] = tested on: rice; experiment: Selectivity: damage to rice, field trial
Protocol: The damage and development of all above-ground parts of the plants were recorded. […] The scores of in each case 4 plots were averaged.
Crop plants were grown outdoors on plots under natural outdoor conditions, and seeds or rhizome pieces of typical harmful plants were laid out or the natural weed growth was utilized.

[5] = tested on: Echinochloa colona (ECHCO); experiment: Herbicidal effect in rice, field trial, Echinochloa colona; conditions: post-emergence 2-4-leaf stage
Protocol: as §1, §2
(§4) Crop plants were grown outdoors on plots under natural outdoor conditions, and seeds or rhizome pieces of typical harmful plants were laid out or the natural weed growth was utilized. Treatment with the compositions according to the invention was carried out after the harmful plants had emerged and the crop plants were, generally, at the 2- to 4-leaf stage; in some cases (as stated), application of individual active compounds or active compound combinations was carried out pre-emergence (cf. Example 1) or as a sequential treatment partly pre-emergence and/or post-emergence.
(§5) After the application, for example 2, 4, 6 and 8 weeks after the application, the effect of the preparations was scored visually by comparison with untreated controls (cf. scoring in Example 1). In the field trial as well, the compositions according to the invention have synergistic herbicidal activity against a broad spectrum of economically important weed grasses and broad-leaved weeds. […] Moreover, the effects in essential phases of the scoring period were above the expected values according to Colby (cf. scoring in Example 1), also indicating synergism. In contrast, the crop plants were, as a consequence of the treatments with the herbicidal compositions, damaged only to a small degree, if at all.

[6] = tested on: Amaranthus retroflexus (AMARE); experiment: Herbicidal effect in rice, field trial, Amaranthus retroflexus; conditions: Table 7 field trial, post-emergence 2-4-leaf stage, scoring 28 days after application, 3000 g of AS/ha
Protocol: as §1, §2, §4
as §5, with “In contrast, the crop plants were, as a consequence of the treatments with the herbicidal compositions, damaged only to a small degree, if at all.” left out

[7] = tested on: Cyperus iria (CYPIR); experiment: Herbicidal effect in rice, field trial, Cyperus iria; conditions: Table 14 field trial, post-emergence 3-leaf stage, scoring 42 days after application, 1500 g of AS/ha
Protocol: as §1, §2, §4
as §5, with “In contrast, the crop plants were, as a consequence of the treatments with the herbicidal compositions, damaged only to a small degree, if at all.” left out

[8] = tested on: Eleusine indica (ELEIN); experiment: Herbicidal effect in rice, field trial, Eleusine indica; conditions: Table 4 field trial, post-emergence 2-4-leaf stage, scoring 28 days after application
Protocol: as §1, §2, §4
as §5, with “In contrast, the crop plants were, as a consequence of the treatments with the herbicidal compositions, damaged only to a small degree, if at all.” left out

[9] = tested on: Echinochloa crus-galli (ECHCG); experiment: Herbicidal effect in rice, field trial, Echinochloa crus-galli
Protocol: as §1, §2, §4, §5

[10] = tested on: Echinochloa crus-galli (ECHCG); experiment: Herbicidal effect in rice, greenhouse trial, Echinochloa crus-galli; conditions: Table 6 greenhouse trial, post-emergence 3-4-leaf stage, scoring 20 days after application
Protocol: as §1, §2
Seeds or rhizome pieces of monocotyledonous and dicotyledonous weeds are placed in sandy loam soil in pots, covered with soil and grown in a greenhouse under good growth conditions (temperature, atmospheric humidity, water supply). Three weeks after sowing, the test plants are treated at the three-leaf stage with the compositions according to the invention. The compositions according to the invention, formulated as wettable powders or as emulsion concentrates, are sprayed, at various dosages, onto the green parts of the plant at an application rate of 600 to 800 l of water/ha (converted). After the test plants have been in the greenhouse for about 3 to 4 weeks under ideal growth conditions, the effect of the preparations is scored visually by comparison with untreated controls. The compositions according to the invention also have a good herbicidal post-emergence activity against a broad spectrum of economically important weed grasses and weeds.
as §3

[11] = Table 13 field trial, post-emergence 1-2-leaf stage, scoring 28 days after application, 37.5 g of AS/ha
[12] = Table 12 field trial, post-emergence 3-leaf stage, scoring 12 days after application, 20 g of AS/ha
[13] = Table 12 field trial, post-emergence 3-leaf stage, scoring 12 days after application, 40 g of AS/ha
[14] = Table 12 field trial, post-emergence 3-leaf stage, scoring 12 days after application, 80 g of AS/ha
[15] = Table 6 greenhouse trial, post-emergence 3-4-leaf stage, 18 g of AS/ha
[16] = Table 6 greenhouse trial, post-emergence 3-4-leaf stage, 37 g of AS/ha
[17] = Table 6 greenhouse trial, post-emergence 3-4-leaf stage, 75 g of AS/ha

CCN(C(=O)n1nnn(-c2ccccc2Cl)c1=O)C1CCCCC1 [(B1.15), fentrazamid]
Herbicidal effect (in %) against SAGPY ([1]; 25 g of AS/ha): 0%
Herbicidal effect (in %) against SAGPY ([1]; 50 g of AS/ha): 40%
Herbicidal effect (in %) against SAGPY ([1]; 100 g of AS/ha): 80%
Damage (in %) to rice ([2]; Table 5 greenhouse trial, post-emergence 1-2-leaf stage, 25 g of AS/ha): 0%
Damage (in %) to rice ([2]; Table 5 greenhouse trial, post-emergence 1-2-leaf stage, 50 g of AS/ha): 0%
Damage (in %) to rice ([2]; Table 5 greenhouse trial, post-emergence 1-2-leaf stage, 100 g of AS/ha): 0%

Cc1nn(-c2cc(CC(Cl)C(=O)O)c(Cl)cc2F)c(=O)n1C(F)F (centres unmarked) [(B2.2), carfentrazone]
Herbicidal effect (in %) against SEBEX [3]: 93%
Damage (in %) to rice ([4]; Table 10 field trial, post-emergence 2-4-leaf stage, scoring 28 days after application, 32 g of AS/ha): 13%

oxadiargyl [(B4.9)]
Herbicidal effect (in %) against ECHCO ([5]; Table 3 field trial, scoring 28 days after application, 25 g of AS/ha): 33%
Herbicidal effect (in %) against ECHCO ([5]; Table 3 field trial, scoring 28 days after application, 50 g of AS/ha): 43%
Herbicidal effect (in %) against ECHCO ([5]; Table 3 field trial, scoring 28 days after application, 100 g of AS/ha): 48%

CCN(CC)C(=O)SCc1ccc(Cl)cc1 [(B1.11), thiobencarb]
Herbicidal effect (in %) against AMARE [6]: 83%
Herbicidal effect (in %) against CYPIR [7]: 78%

CC1=C(c2ccccc2)C(=O)N(C(C)(C)c2cc(Cl)cc(Cl)c2)CO1 [(B4.26), oxaziclomefone]
Damage (in %) to rice ([4]; Table 4 field trial, post-emergence 2-4-leaf stage, scoring 28 days after application, 30 g of AS/ha): 15%
Damage (in %) to rice ([4]; Table 4 field trial, post-emergence 2-4-leaf stage, scoring 28 days after application, 60 g of AS/ha): 19%
Herbicidal effect (in %) against ELEIN ([8]; 30 g of AS/ha): 0%
Herbicidal effect (in %) against ELEIN ([8]; 60 g of AS/ha): 37%

COc1nc(NC(=O)NS(=O)(=O)c2ccccc2C(F)(F)F)nc(C(F)(F)F)n1 [(B2.4), tritosulfuron]
Damage (in %) to rice [4, 11]: 0%
Herbicidal effect (in %) against ECHCG [9, 11]: 0%

CCOC(=O)[C@@H](C)Oc1ccc(Oc2nc3ccc(Cl)cc3o2)cc1 [(A1.1), fenoxaprop-P-ethyl]
Damage (in %) to rice ([4]; Table 2 field trial, post-emergence 2-4-leaf stage, scoring 21 days after application, 45 g of AS/ha): 0%
Damage (in %) to rice ([4]; Table 3 field trial, post-emergence 2-4-leaf stage, scoring 28 days after application, 45 g of AS/ha): 21%
Damage (in %) to rice ([4]; Table 4 field trial, post-emergence 2-4-leaf stage, scoring 28 days after application, 45 g of AS/ha): 21%
Damage (in %) to rice [4, 12]: 0%
Damage (in %) to rice [4, 13]: 0%
Damage (in %) to rice [4, 14]: 5%
Herbicidal effect (in %) against ECHCO ([5]; Table 2 field trial, scoring 21 days after application, 45 g of AS/ha): 51%
Herbicidal effect (in %) against ECHCO ([5]; Table 3 field trial, scoring 28 days after application, 45 g of AS/ha): 83%
Herbicidal effect (in %) against ELEIN ([8]; 45 g of AS/ha): 80%
Herbicidal effect (in %) against SAGPY ([1]; 37.5 g of AS/ha): 0%
Herbicidal effect (in %) against SAGPY ([1]; 75 g of AS/ha): 0%
Damage (in %) to rice ([2]; Table 5 greenhouse trial, post-emergence 1-2-leaf stage, 37.5 g of AS/ha): 0%
Damage (in %) to rice ([2]; Table 5 greenhouse trial, post-emergence 1-2-leaf stage, 75 g of AS/ha): 8%
Damage (in %) to rice [2, 15]: 0%
Damage (in %) to rice [2, 16]: 0%
Damage (in %) to rice [2, 17]: 3%
Herbicidal effect (in %) against ECHCG ([10]; 18 g of AS/ha): 15%
Herbicidal effect (in %) against ECHCG ([10]; 37 g of AS/ha): 40%
Herbicidal effect (in %) against ECHCG ([10]; 75 g of AS/ha): 82%
Herbicidal effect (in %) against ECHCG [9, 12]: 80%
Herbicidal effect (in %) against ECHCG [9, 13]: 95%
Herbicidal effect (in %) against ECHCG [9, 14]: 97%

CCC/C(=N\OCC(C)Oc1ccc(Cl)cc1)C1=C(O)CC(C2CCCSC2)CC1=O (centres unmarked) [(B1.31), clefoxidim]
Damage (in %) to rice [2, 15]: 0%
Damage (in %) to rice [2, 16]: 0%
Damage (in %) to rice [2, 17]: 0%
Herbicidal effect (in %) against ECHCG ([10]; 18 g of AS/ha): 0%
Herbicidal effect (in %) against ECHCG ([10]; 37 g of AS/ha): 10%
Herbicidal effect (in %) against ECHCG ([10]; 75 g of AS/ha): 83%
